The target in assay [1] is GST-tagged K-Ras mutant / His-tagged hSOS1 (Homo sapiens, UniProt P01116). The experiment in a line: HTRF assay, K-Ras mutant / SOS1 interaction. Format: binding. To be noted: compound nos. 401-703; read-out: IC50 against mutant Kras. An outline of the steps:
(§1)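 HTRF read-out of GST-tagged K-Ras (mutant or wildtype) binding His-hSOS1, via anti-GST-Eu donor and anti-6His-XL665 acceptor; buffer ~5 mM HEPES pH 7.4, ~150 mM NaCl, ~1 mM DTT, 0.05% BSA, 0.0025% Igepal. Read after ≥~10 min; duplicates, 10 μM to 0.01 μM; IC50 from 665/620 nm ratio.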
Background: Time-resolved FRET reads energy transfer from a long-lived donor to a nearby acceptor.

A further assay addresses T1, wildtype Kras / hSOS1 (Homo sapiens, UniProt P01116).
T1 construct: made in house; host or cells: E. coli BL21 (DE3)
The experiment in a line: HTRF assay, wildtype Kras / SOS1 interaction. The assay is classed as binding. As to conditions: compound nos. 401-703; read-out: IC50 against wildtype Kras. An outline of the steps: as §1

Some results are limits rather than exact numbers.

One may read the IC50 as the midpoint of a concentration-inhibition curve.

Chain of GST-tagged K-Ras mutant / His-tagged hSOS1 (P01116 whole entry G12D, form open): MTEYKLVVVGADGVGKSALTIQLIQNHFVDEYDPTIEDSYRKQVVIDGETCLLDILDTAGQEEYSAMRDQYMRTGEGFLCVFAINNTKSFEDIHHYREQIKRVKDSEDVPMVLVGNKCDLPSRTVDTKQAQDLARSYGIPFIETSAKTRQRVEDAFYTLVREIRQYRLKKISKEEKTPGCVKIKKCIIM
T1 sequence (P01116 1-188 isoform P01116-2): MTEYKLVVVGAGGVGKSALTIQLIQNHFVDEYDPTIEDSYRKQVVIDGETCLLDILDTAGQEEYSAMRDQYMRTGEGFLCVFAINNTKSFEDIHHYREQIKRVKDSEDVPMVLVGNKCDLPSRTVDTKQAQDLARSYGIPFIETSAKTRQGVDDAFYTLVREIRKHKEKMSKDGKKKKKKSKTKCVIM

Regarding `Nc1nc2ccccc2c(-c2ccc3c(N4CC5CCC(C4)N5)nc(OCC45CCCN4CCC5)nc3c2F)c1Cl` [Compound 493, 4-(4-(3,8-diazabicyclo-[3.2.1]octan-3-yl)-8-fluoro-2-((tetrahydro-1H-pyrrol-izin-7a(5H)-yl)methoxy)-quinazolin-7-yl)-3-chloro-quinolin-2-amine], the IC50 in assay [1] is > 500 nM; on wildtype Kras / hSOS1 it was < 500 nM.
As to `Nc1nc2c(-c3c(Cl)cc4c(N5CCC6CCC(C5)N6)nc(OCC56CCCN5CCC6)nc4c3F)ccc(F)c2s1` (centres unmarked) [Compound 494, 4-(4-(3,9-diazabicyclo-[4.2.1]nonan-3-yl)-6-chloro-8-fluoro-2-((tetrahydro-1H-pyrrolizin-7a(5H)-yl)meth-oxy)quinazolin-7-yl)-7-fluorobenzo[d]thiazol-2-amine], the half-inhibitory concentration (IC50) (in assay [1]; on wildtype Kras / hSOS1) was < 500 nM in each case.
For the compound `N#C/C=C/c1cc2c(N3CC4CCC(C3)N4)nc(OC[C@@]34CCCN3C[C@H](F)C4)nc2c(F)c1-c1ccc(F)c2sc(N)nc12` [Compound 495, (E)-3-(7-(2-amino-7-fluoro-benzo[d]thiazol-4-yl)-4-(3,8-diazabicyclo[3.2.1]octan-3-yl)-8-fluoro-2-(((2R,7aS)-2-fluorotetrahydro-1H-pyrrol-izin-7a(5H)-yl)methoxy)-quinazolin-6-yl)acrylonitrile], the IC50 in assay [1] is > 500 nM; on wildtype Kras / hSOS1, < 500 nM.
For the compound `N#CCCc1cc2c(N3CC4CCC(C3)N4)nc(OC[C@@]34CCCN3C[C@H](F)C4)nc2c(F)c1-c1ccc(F)c2sc(N)nc12` [Compound 496, 3-(7-(2-amino-7-fluoroben-zo[d]thiazol-4-yl)-4-(3,8-diazabicyclo[3.2.1]octan-3-yl)-8-fluoro-2-(((2R,7aS)-2-fluorotetrahydro-1H-pyrrol-izin-7a(5H)-yl)methoxy)-quinazolin-6-yl)propane-nitrile], the IC50 (in assay [1]; at wildtype Kras / hSOS1) was < 500 nM each time.
`Nc1cc(-c2ccc3c(N4CC5CCC(C4)N5)nc(OCC45CCCN4CCC5)nc3c2F)c2c(Cl)cccc2n1` [Compound 498, 4-(4-(3,8-diazabicyclo-[3.2.1]octan-3-yl)-8-fluoro-2-((tetrahydro-1H-pyrrol-izin-7a(5H)-yl)methoxy)-quinazolin-7-yl)-5-chloro-quinolin-2-amine]: the values for the IC50 (in assay [1]; at wildtype Kras / hSOS1) were > 500 nM and < 500 nM, respectively.
For the compound `Nc1nc2c(-c3c(Cl)cc4c(N5CCCCCC5)nc(OC[C@@]56CCCN5C[C@H](F)C6)nc4c3F)ccc(F)c2s1` [Compound 499, 4-(4-(azepan-1-yl)-6-chloro-8-fluoro-2-(((2R,7aS)-2-fluorotetrahydro-1H-pyrrol-izin-7a(5H)-yl)methoxy)-quinazolin-7-yl)-7-fluoro-benzo[d]thiazol-2-amine], the IC50 (in assay [1]; on wildtype Kras / hSOS1) was < 500 nM each time.
With `N#Cc1c(N)sc2c(F)ccc(-c3c(Cl)cc4c(N5CC6CCC(C5)N6CC5CC5)nc(OC[C@@]56CCCN5C[C@H](F)C6)nc4c3F)c12` [Compound 500, 2-amino-4-(6-chloro-4-((1R,5S)-8-(cyclopropyl-methyl)-3,8-diazabicyclo-[3.2.1]octan-3-yl)-8-fluoro-2-(((2R,7aS)-2-fluorotetra-hydro-1H-pyrrolizin-7a(5H)-yl)methoxy)quin-azolin-7-yl)-7-fluorobenzo-[b]thiophene-3-carbonitrile], the IC50 (in assay [1]; on wildtype Kras / hSOS1) was < 500 nM in each case.
In the case of `CN(C)CC1(COc2nc(N3CC4CCC(C3)N4)c3ccc(-c4cc(O)cc5ccccc45)c(F)c3n2)CC1` [Compound 501, 4-(4-(3,8-diazabicyclo-[3.2.1]octan-3-yl)-2-((1-((dimethylamino)methyl)-cyclopropyl)methoxy)-8-fluoroquinazolin-7-yl)naph-thalen-2-ol], the figures for the IC50 (in assay [1]; at wildtype Kras / hSOS1) were < 500 nM and > 500 nM, respectively.
In the same order, the values of `Nc1nc2cc(-c3c(Cl)cc4c(N5CC6CCC(C5)N6)nc(OCC56CCCN5CCC6)nc4c3F)ccc2o1` [Compound 502, 5-(4-(3,8-diazabicyclo-[3.2.1]octan-3-yl)-6-chloro-8-fluoro-2-((tetrahydro-1H-pyrrolizin-7a(5H)-yl)meth-oxy)quinazolin-7-yl)benzo-[d]oxazol-2-amine] are > 500 nM and > 500 nM.
In the same order, the values of `CN(C)C1CN(c2nc(N3CC4CCC(C3)N4)c3cc(Cl)c(-c4ccc(F)c5sc(N)nc45)c(F)c3n2)C1` [Compound 503, 4-(4-(3,8-diazabicyclo-[3.2.1]octan-3-yl)-6-chloro-2-(3-(dimethyl-amino)azetidin-1-yl)-8-fluoroquinazolin-7-yl)-7-fluorobenzo[d]thiazol-2-amine] are > 500 nM and > 500 nM.
For `N#Cc1c(N)sc2c(F)ccc(-c3c(Cl)cc4c(N5CCC6CCC(C5)N6)nc(OC[C@@]56CCCN5C[C@H](F)C6)nc4c3F)c12` (stereo partly drawn) [Compound 504, 4-(4-(3,9-diazabicyclo-[4.2.1]nonan-3-yl)-6-chloro-8-fluoro-2-(((2R,7aS)-2-fluorotetrahydro-1H-pyrrol-izin-7a(5H)-yl)methoxy)-quin-azolin-7-yl)-2-amino-7-fluorobenzo[b]thiophene-3-carbonitrile], the IC50 was < 500 nM in assay [1] and > 500 nM at wildtype Kras / hSOS1.
Regarding `Cc1ncc(COc2nc(N3CCCCCC3)c3cc(Cl)c(-c4cccc5sc(N)nc45)c(F)c3n2)cn1` [Compound 505, 4-(4-(azepan-1-yl)-6-chloro-8-fluoro-2-((2-methylpyr-imidin-5-yl)methoxy)quin-azolin-7-yl)benzo[d]thiazol-2-amine], the concentration for half-maximal inhibition (IC50) (in assay [1]; at wildtype Kras / hSOS1) was > 500 nM each time.
Regarding `CN1CCC[C@H]1COc1nc(N2CCCCC(O)C2)c2cc(Cl)c(-c3cccc4sc(N)nc34)c(F)c2n1` (stereo partly drawn) [Compound 506, 1-(7-(2-aminobenzo[d]thia-zol-4-yl)-6-chloro-8-fluoro-2-(((S)-1-methylpyrrolidin-2-yl)methoxy)quinazolin-4-yl)azepan-3-ol], the IC50 in assay [1] is < 500 nM; on wildtype Kras / hSOS1, > 500 nM.
In the case of `NC(=O)C1COCCN(c2nc(OC[C@@]34CCCN3C[C@H](F)C4)nc3c(F)c(-c4ccc(F)c5sc(N)nc45)c(Cl)cc23)C1` (stereo partly drawn) [Compound 507, 4-(7-(2-amino-7-fluoroben-zo[d]thiazol-4-yl)-6-chloro-8-fluoro-2-(((2R,7aS)-2-fluorotetrahydro-1H-pyrrol-izin-7a(5H)-yl)methoxy)-quinazolin-4-yl)-1,4-oxazepane-6-carboxamide], the figures for the IC50 (in assay [1]; on wildtype Kras / hSOS1) were < 500 nM and > 500 nM, respectively.
For `C#Cc1c(F)ccc2cc(O)cc(-c3ccc4c(N5CCCC6(CNC6)C5)nc(OC[C@@]56CCCN5C[C@H](F)C6)nc4c3F)c12` [Compound 508, 5-ethynyl-6-fluoro-4-(8-fluoro-2-(((2R,7aS)-2-fluorotetrahydro-1H-pyrrol-izin-7a(5H)-yl)methoxy)-4-(2,6-diazaspiro[3.5]nonan-6-yl)quinazolin-7-yl)naph-thalen-2-ol], in that order: < 500 nM and > 500 nM.
`Nc1nc2c(C3CCc4c(nc(OC[C@@]56CCCN5C[C@H](F)C6)nc4N4CCNCC(F)(F)C4)C3)cccc2s1` (stereo partly drawn) [Compound 509, 4-(4-(6,6-difluoro-1,4-diazepan-1-yl)-2-(((2R,7aS)-2-fluorotetrahydro-1H-pyrrolizin-7a(5H)-yl)meth-oxy)-5,6,7,8-tetrahydro-quinazolin-7-yl)benzo[d]-thiazol-2-amine]: the IC50 (in assay [1]; at wildtype Kras / hSOS1) was > 500 nM each time.

The values above are taken from patent US20240254129A1, “HETEROCYCLIC COMPOUNDS AND USES THEREOF” (Kumquat Biosciences Inc., priority 2021, published 2024).
